Experimental data reported in article PMC9483557, “Reisomerization of retinal represents a molecular switch mediating Na^+ uptake and release by a bacterial sodium-pumping rhodopsin” (The Journal of Biological Chemistry, 2022).

Molecular target: T1, IaNaR (Indibacter alkaliphilus, UniProt S2D3K4)
T1 construct: gene A33Q_3728; C-terminal His tag, E. coli BL21, vector pKA001, DDM-solubilised, Ni-NTA purified, reconstituted in Egg-PC liposomes
T1 sequence (S2D3K4 1-279): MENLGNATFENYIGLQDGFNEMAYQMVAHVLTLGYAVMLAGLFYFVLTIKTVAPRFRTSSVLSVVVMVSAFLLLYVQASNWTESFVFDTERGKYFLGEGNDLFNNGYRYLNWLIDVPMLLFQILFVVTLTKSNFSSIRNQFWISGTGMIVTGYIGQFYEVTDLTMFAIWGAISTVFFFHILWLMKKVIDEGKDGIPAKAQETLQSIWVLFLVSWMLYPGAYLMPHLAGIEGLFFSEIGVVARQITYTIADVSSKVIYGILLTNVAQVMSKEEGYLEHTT
Experiment: time-resolved cryo-Raman ([…] nm preresonance) and absorption spectroscopy
Assay type: binding
Conditions: covalent; protonated Schiff base to helix G lysine; dark state all-trans; humidified film, 268 K, pH 8.0, NaCl

**Q.** How did the “time-resolved cryo-Raman (785 nm preresonance) and absorption spectroscopy” value turn out when CC1=C(/C=C/C(C)=C/C=C/C(C)=C/C=O)C(C)(C)CCC1 [retinal] was run?
**A.** Its value is “the vibrational modes of the RSB chromophore were selectively observed due to the preresonance enhancement”.
